In the NIST ThermoML archive (doi:10.1016/j.tca.2009.10.010):
Numbers after ± are expanded uncertainties.

Columns and labels:
[1] = Molar enthalpy of transition or fusion; conditions: Crystal; DSC
[2] = Crystal; visual observation

Molar enthalpy of transition or fusion [1] [kcal/mol]	Normal melting temperature [2] [°C]	Compound
5.31 ± 0.158	110.50 ± 1.1	Oc1cccc(O)c1 [1,3-benzenediol]
5.77 ± 0.17	130.00 ± 1.1	Ic1ccc(I)cc1 [1,4-diiodobenzene]
